Measurements reported in patent US20110040086A1, “Novel Beta-Lactam Antibiotics, Methods for Their Production, and Their Use” (DRITTE PATENTPORTFOLIO BETEILIGUNGSGESELLSCHAFT MB, priority 2007, published 2011).

How the values were obtained:
Test in all cases: agar diffusion test (Test System II, multi-resistant germs)
[1] = test system: S. epidermidis 847; type: cell-based, Staphylococcus epidermidis; set-up: key: r = resistant (no detectable zone of inhibition)
In short: (§1)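 Compounds, dissolved in methanol or distilled water, were loaded onto paper discs at 10, 50 and 100 μg and placed three per plate on Müller-Hinton agar II spread with a McFarland 0.5 saline suspension. After 18-20 h at 37 °C, inhibition zone diameters were measured.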

[2] = test system: S. epidermidis 1068; type: cell-based, Staphylococcus epidermidis; set-up: key: r = resistant (no detectable zone of inhibition)
In short: as §1

[3] = test system: S. epidermidis 563; type: cell-based, Staphylococcus epidermidis; set-up: key: r = resistant (no detectable zone of inhibition)
In short: as §1

[4] = test system: S. epidermidis 1071; type: cell-based, Staphylococcus epidermidis; set-up: key: r = resistant (no detectable zone of inhibition)
In short: as §1

[5] = test system: E. faecalis 945; type: cell-based, Enterococcus faecalis; set-up: key: r = resistant (no detectable zone of inhibition)
In short: as §1

[6] = test system: S. aureus 38418; type: cell-based, Staphylococcus aureus
In short: as §1

[7] = test system: S. aureus ATCC 6538; type: cell-based, Staphylococcus aureus
In short: as §1

7-[2-(2-carbamoyl-3,6-dioxocyclohexa-1,4-dienylamino)-2-(4-hydroxyphenyl)-acetylamino]-desacetoxycephalosporanic acid [1b]
Diameter of zone of inhibition ([1]; Quantity n [mol] 0.019): r | Diameter of zone of inhibition ([1]; Quantity n [mol] 0.1): 10 mm | Diameter of zone of inhibition ([1]; Quantity n [mol] 0.19): 12 mm | Diameter of zone of inhibition ([2]; Quantity n 0.019): r | Diameter of zone of inhibition ([2]; Quantity n 0.1): 16 mm | Diameter of zone of inhibition ([2]; Quantity n 0.19): 20 mm | Diameter of zone of inhibition ([3]; Quantity n 0.019): r | Diameter of zone of inhibition ([3]; Quantity n 0.1): 14 mm | Diameter of zone of inhibition ([3]; Quantity n 0.19): 20 mm | Diameter of zone of inhibition ([4]; Quantity n 0.019): r | Diameter of zone of inhibition ([4]; Quantity n 0.1): 18 mm | Diameter of zone of inhibition ([4]; Quantity n 0.19): 22 mm | Diameter of zone of inhibition ([5]; Quantity n 0.019): r | Diameter of zone of inhibition ([5]; Quantity n 0.1): r | Diameter of zone of inhibition ([5]; Quantity n 0.19): r | Diameter of zone of inhibition ([6]; Quantity n [mol] 0.019): 16 mm | Diameter of zone of inhibition ([6]; Quantity n [mol] 0.1): 24 mm | Diameter of zone of inhibition ([6]; Quantity n [mol] 0.19): 26 mm | Diameter of zone of inhibition ([7]; Quantity n 0.019): 16 mm | Diameter of zone of inhibition ([7]; Quantity n 0.1): 24 mm | Diameter of zone of inhibition ([7]; Quantity n 0.19): 28 mm

CCOC(=O)C1=C(NC(C(=O)NC2C(=O)N3C(C(=O)O)=C(Cl)CSC23)c2ccccc2)C(=O)C=CC1=O (stereo not drawn) [1l]
Diameter of zone of inhibition ([1]; Quantity n [mol] 0.019): r | Diameter of zone of inhibition ([1]; Quantity n [mol] 0.09): 20 mm | Diameter of zone of inhibition ([1]; Quantity n [mol] 0.19): 22 mm | Diameter of zone of inhibition ([2]; Quantity n 0.019): 14 mm | Diameter of zone of inhibition ([2]; Quantity n 0.09): 20 mm | Diameter of zone of inhibition ([2]; Quantity n 0.19): 22 mm | Diameter of zone of inhibition ([3]; Quantity n 0.019): 16 mm | Diameter of zone of inhibition ([3]; Quantity n 0.09): 28 mm | Diameter of zone of inhibition ([3]; Quantity n 0.19): 30 mm | Diameter of zone of inhibition ([4]; Quantity n 0.019): 16 mm | Diameter of zone of inhibition ([4]; Quantity n 0.09): 24 mm | Diameter of zone of inhibition ([4]; Quantity n 0.19): 28 mm | Diameter of zone of inhibition ([5]; Quantity n 0.019): r | Diameter of zone of inhibition ([5]; Quantity n 0.09): r | Diameter of zone of inhibition ([5]; Quantity n 0.19): r | Diameter of zone of inhibition ([6]; Quantity n [mol] 0.019): 18 mm | Diameter of zone of inhibition ([6]; Quantity n [mol] 0.09): 28 mm | Diameter of zone of inhibition ([6]; Quantity n [mol] 0.19): 30 mm | Diameter of zone of inhibition ([7]; Quantity n 0.019): 24 mm | Diameter of zone of inhibition ([7]; Quantity n 0.09): 30 mm | Diameter of zone of inhibition ([7]; Quantity n 0.19): 34 mm

3-chlorine-7-[2-(2-methoxycarbonyl-3,6-dioxocyclohexa-1,4-dienylamino)-2-phenyl-acetylamino]-8-oxo-1-thia-5-azabicyclo[4.2.0]oct-3-en-4-carboxylic acid [1k]
Diameter of zone of inhibition ([1]; Quantity n [mol] 0.029): 8 mm | Diameter of zone of inhibition ([1]; Quantity n [mol] 0.14): 24 mm | Diameter of zone of inhibition ([1]; Quantity n [mol] 0.29): 28 mm | Diameter of zone of inhibition ([2]; Quantity n 0.029): 14 mm | Diameter of zone of inhibition ([2]; Quantity n 0.14): 22 mm | Diameter of zone of inhibition ([2]; Quantity n 0.29): 24 mm | Diameter of zone of inhibition ([3]; Quantity n 0.029): 18 mm | Diameter of zone of inhibition ([3]; Quantity n 0.14): 28 mm | Diameter of zone of inhibition ([3]; Quantity n 0.29): 30 mm | Diameter of zone of inhibition ([4]; Quantity n 0.029): 18 mm | Diameter of zone of inhibition ([4]; Quantity n 0.14): 24 mm | Diameter of zone of inhibition ([4]; Quantity n 0.29): 28 mm | Diameter of zone of inhibition ([5]; Quantity n 0.029): r | Diameter of zone of inhibition ([5]; Quantity n 0.14): r | Diameter of zone of inhibition ([5]; Quantity n 0.29): r | Diameter of zone of inhibition ([6]; Quantity n [mol] 0.029): 22 mm | Diameter of zone of inhibition ([6]; Quantity n [mol] 0.14): 30 mm | Diameter of zone of inhibition ([6]; Quantity n [mol] 0.29): 34 mm | Diameter of zone of inhibition ([7]; Quantity n 0.029): 28 mm | Diameter of zone of inhibition ([7]; Quantity n 0.14): 36 mm | Diameter of zone of inhibition ([7]; Quantity n 0.29): 38 mm

7-{2-[2-(2-hydroxyethylcarbamoyl)-3,6-dioxocyclohexa-1,4-dienylamino]-2-phenyl-acetylamino}-desacetoxycephalosporanic acid [1e]
Diameter of zone of inhibition ([1]; Quantity n [mol] 0.029): r | Diameter of zone of inhibition ([1]; Quantity n [mol] 0.14): 16 mm | Diameter of zone of inhibition ([1]; Quantity n [mol] 0.29): 20 mm | Diameter of zone of inhibition ([2]; Quantity n 0.029): r | Diameter of zone of inhibition ([2]; Quantity n 0.14): 14 mm | Diameter of zone of inhibition ([2]; Quantity n 0.29): 16 mm | Diameter of zone of inhibition ([3]; Quantity n 0.029): r | Diameter of zone of inhibition ([3]; Quantity n 0.14): 18 mm | Diameter of zone of inhibition ([3]; Quantity n 0.29): 24 mm | Diameter of zone of inhibition ([4]; Quantity n 0.029): 10 mm | Diameter of zone of inhibition ([4]; Quantity n 0.14): 18 mm | Diameter of zone of inhibition ([4]; Quantity n 0.29): 20 mm | Diameter of zone of inhibition ([5]; Quantity n 0.029): r | Diameter of zone of inhibition ([5]; Quantity n 0.14): r | Diameter of zone of inhibition ([5]; Quantity n 0.29): r | Diameter of zone of inhibition ([6]; Quantity n [mol] 0.029): 14 mm | Diameter of zone of inhibition ([6]; Quantity n [mol] 0.14): 26 mm | Diameter of zone of inhibition ([6]; Quantity n [mol] 0.29): 30 mm | Diameter of zone of inhibition ([7]; Quantity n 0.029): 20 mm | Diameter of zone of inhibition ([7]; Quantity n 0.14): 30 mm | Diameter of zone of inhibition ([7]; Quantity n 0.29): 32 mm
